Patent US9113629B2, “4-amino-6-(4-substituted-phenyl)-picolinates and 6-amino-2-(4-substituted-phenyl)-pyrimidine-4-carboxylates and their use as herbicides” (DOW AGROSCIENCES LLC, priority 2013, dated 2015)

System: Key Broadleaf Weed and Crop Species
Test: Post-emergent Test II herbicidal activity (Table 5)
Type: in vivo
Settings: post-emergence, 336 h; ABUTH: velvetleaf (Abutilon theophrasti); 70 g ai/ha; post-emergent; 14 days after application; read-out: Visual Growth Reduction (%) 14 Days After Application ABUTH
Outline: (§1)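 Visual injury ratings (0 = no injury, 100 = complete kill) were taken 14 d after treatment, relative to untreated plants. Seedlings at the first–second true leaf stage received overhead spray at 187 L/ha; the highest rate was serially diluted to ½×, ¼×, ⅛× and 1/16×.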

| Structure (SMILES) | pest or weed control at 70 g/ha |
| --- | --- |
| Nc1c(Cl)c(C(=O)O)nc(-c2ccc(Br)cc2)c1Cl [Compound 125] | 95 to 100% |

Same assay, conditions: post-emergence, 336 h; ABUTH: velvetleaf (Abutilon theophrasti); 140 g ai/ha; post-emergent; 14 days after application; read-out: Visual Growth Reduction (%) 14 Days After Application ABUTH

| Structure (SMILES) | pest or weed control at 140 g/ha |
| --- | --- |
| Nc1c(Cl)c(C(=O)O)nc(-c2ccc(Br)cc2)c1Cl [Compound 125] | 95 to 100% |

Same assay, conditions: post-emergence, 336 h; AMARE: redroot pigweed (Amaranthus retroflexus); 70 g ai/ha; post-emergent; 14 days after application; read-out: Visual Growth Reduction (%) 14 Days After Application AMARE

| Structure (SMILES) | pest or weed control at 70 g/ha |
| --- | --- |
| Nc1c(Cl)c(C(=O)O)nc(-c2ccc(Br)cc2)c1Cl [Compound 125] | 95 to 100% |

Same assay, conditions: post-emergence, 336 h; AMARE: redroot pigweed (Amaranthus retroflexus); 140 g ai/ha; post-emergent; 14 days after application; read-out: Visual Growth Reduction (%) 14 Days After Application AMARE

| Structure (SMILES) | pest or weed control at 140 g/ha |
| --- | --- |
| Nc1c(Cl)c(C(=O)O)nc(-c2ccc(Br)cc2)c1Cl [Compound 125] | 95 to 100% |

Same assay, conditions: post-emergence, 336 h; BRSNN: oilseed-rape, canola (Brassica napus); 70 g ai/ha; post-emergent; 14 days after application; read-out: Visual Growth Reduction (%) 14 Days After Application BRSNN

| Structure (SMILES) | pest or weed control at 70 g/ha |
| --- | --- |
| Nc1c(Cl)c(C(=O)O)nc(-c2ccc(Br)cc2)c1Cl [Compound 125] | 95 to 100% |

Same assay, conditions: post-emergence, 336 h; BRSNN: oilseed-rape, canola (Brassica napus); 140 g ai/ha; post-emergent; 14 days after application; read-out: Visual Growth Reduction (%) 14 Days After Application BRSNN

| Structure (SMILES) | pest or weed control at 140 g/ha |
| --- | --- |
| Nc1c(Cl)c(C(=O)O)nc(-c2ccc(Br)cc2)c1Cl [Compound 125] | 95 to 100% |

Same assay, conditions: post-emergence, 336 h; CHEAL: lambsquarters (Chenopodium album); 70 g ai/ha; post-emergent; 14 days after application; read-out: Visual Growth Reduction (%) 14 Days After Application CHEAL

| Structure (SMILES) | pest or weed control at 70 g/ha |
| --- | --- |
| Nc1c(Cl)c(C(=O)O)nc(-c2ccc(Br)cc2)c1Cl [Compound 125] | 95 to 100% |

Same assay, conditions: post-emergence, 336 h; CHEAL: lambsquarters (Chenopodium album); 140 g ai/ha; post-emergent; 14 days after application; read-out: Visual Growth Reduction (%) 14 Days After Application CHEAL

| Structure (SMILES) | pest or weed control at 140 g/ha |
| --- | --- |
| Nc1c(Cl)c(C(=O)O)nc(-c2ccc(Br)cc2)c1Cl [Compound 125] | 95 to 100% |

Same assay, conditions: post-emergence, 336 h; EPHHL: wild poinsettia (Euphorbia heterophylla); 70 g ai/ha; post-emergent; 14 days after application; read-out: Visual Growth Reduction (%) 14 Days After Application EPHHL

| Structure (SMILES) | pest or weed control at 70 g/ha |
| --- | --- |
| Nc1c(Cl)c(C(=O)O)nc(-c2ccc(Br)cc2)c1Cl [Compound 125] | 30 to 44% |

Same assay, conditions: post-emergence, 336 h; EPHHL: wild poinsettia (Euphorbia heterophylla); 140 g ai/ha; post-emergent; 14 days after application; read-out: Visual Growth Reduction (%) 14 Days After Application EPHHL

| Structure (SMILES) | pest or weed control at 140 g/ha |
| --- | --- |
| Nc1c(Cl)c(C(=O)O)nc(-c2ccc(Br)cc2)c1Cl [Compound 125] | 45 to 59% |

Same assay, conditions: post-emergence, 336 h; HELAN: sunflower (Helianthus annuus); 70 g ai/ha; post-emergent; 14 days after application; read-out: Visual Growth Reduction (%) 14 Days After Application HELAN

| Structure (SMILES) | pest or weed control at 70 g/ha |
| --- | --- |
| Nc1c(Cl)c(C(=O)O)nc(-c2ccc(Br)cc2)c1Cl [Compound 125] | 95 to 100% |

Same assay, conditions: post-emergence, 336 h; HELAN: sunflower (Helianthus annuus); 140 g ai/ha; post-emergent; 14 days after application; read-out: Visual Growth Reduction (%) 14 Days After Application HELAN

| Structure (SMILES) | pest or weed control at 140 g/ha |
| --- | --- |
| Nc1c(Cl)c(C(=O)O)nc(-c2ccc(Br)cc2)c1Cl [Compound 125] | 95 to 100% |

Same assay, conditions: post-emergence, 336 h; VIOTR: wild pansy (Viola tricolor); 70 g ai/ha; post-emergent; 14 days after application; read-out: Visual Growth Reduction (%) 14 Days After Application VIOTR

| Structure (SMILES) | pest or weed control at 70 g/ha |
| --- | --- |
| Nc1c(Cl)c(C(=O)O)nc(-c2ccc(Br)cc2)c1Cl [Compound 125] | 0 to 29% |

Same assay, conditions: post-emergence, 336 h; VIOTR: wild pansy (Viola tricolor); 140 g ai/ha; post-emergent; 14 days after application; read-out: Visual Growth Reduction (%) 14 Days After Application VIOTR

| Structure (SMILES) | pest or weed control at 140 g/ha |
| --- | --- |
| Nc1c(Cl)c(C(=O)O)nc(-c2ccc(Br)cc2)c1Cl [Compound 125] | 0 to 29% |

System: Key Grass and Sedge Weeds as well as Grass Crops
Test: Post-emergent Test II herbicidal activity (Table 6)
Type: in vivo
Settings: Triticum aestivum, post-emergence, 336 h, TRZSS (wheat), application rate 70 g ai/ha, read-out: Visual Growth Reduction (%) 14 Days After Application, TRZSS
Outline: as §1

| Structure (SMILES) | pest or weed control at 70 g/ha |
| --- | --- |
| Nc1c(Cl)c(C(=O)O)nc(-c2ccc(Br)cc2)c1Cl [Compound 125] | 60 to 74% |

Same assay, conditions: Triticum aestivum, post-emergence, 336 h, TRZSS (wheat), application rate 140 g ai/ha, read-out: Visual Growth Reduction (%) 14 Days After Application, TRZSS

| Structure (SMILES) | pest or weed control at 140 g/ha |
| --- | --- |
| Nc1c(Cl)c(C(=O)O)nc(-c2ccc(Br)cc2)c1Cl [Compound 125] | 60 to 74% |

Same assay, conditions: post-emergence, 336 h, CYPES: yellow nutsedge (Cyperus esculentus), application rate 70 g ai/ha, read-out: Visual Growth Reduction (%) 14 Days After Application, CYPES

| Structure (SMILES) | pest or weed control at 70 g/ha |
| --- | --- |
| Nc1c(Cl)c(C(=O)O)nc(-c2ccc(Br)cc2)c1Cl [Compound 125] | 95 to 100% |

Same assay, conditions: post-emergence, 336 h, CYPES: yellow nutsedge (Cyperus esculentus), application rate 140 g ai/ha, read-out: Visual Growth Reduction (%) 14 Days After Application, CYPES

| Structure (SMILES) | pest or weed control at 140 g/ha |
| --- | --- |
| Nc1c(Cl)c(C(=O)O)nc(-c2ccc(Br)cc2)c1Cl [Compound 125] | 95 to 100% |

Same assay, conditions: post-emergence, 336 h, DIGSA: crabgrass (Digitaria sanguinalis), application rate 70 g ai/ha, read-out: Visual Growth Reduction (%) 14 Days After Application, DIGSA

| Structure (SMILES) | pest or weed control at 70 g/ha |
| --- | --- |
| Nc1c(Cl)c(C(=O)O)nc(-c2ccc(Br)cc2)c1Cl [Compound 125] | 60 to 74% |

Same assay, conditions: post-emergence, 336 h, DIGSA: crabgrass (Digitaria sanguinalis), application rate 140 g ai/ha, read-out: Visual Growth Reduction (%) 14 Days After Application, DIGSA

| Structure (SMILES) | pest or weed control at 140 g/ha |
| --- | --- |
| Nc1c(Cl)c(C(=O)O)nc(-c2ccc(Br)cc2)c1Cl [Compound 125] | 60 to 74% |

Same assay, conditions: post-emergence, 336 h, ORYSA: rice (Oryza sativa), application rate 70 g ai/ha, read-out: Visual Growth Reduction (%) 14 Days After Application, ORYSA

| Structure (SMILES) | pest or weed control at 70 g/ha |
| --- | --- |
| Nc1c(Cl)c(C(=O)O)nc(-c2ccc(Br)cc2)c1Cl [Compound 125] | 0 to 29% |

Same assay, conditions: post-emergence, 336 h, ORYSA: rice (Oryza sativa), application rate 140 g ai/ha, read-out: Visual Growth Reduction (%) 14 Days After Application, ORYSA

| Structure (SMILES) | pest or weed control at 140 g/ha |
| --- | --- |
| Nc1c(Cl)c(C(=O)O)nc(-c2ccc(Br)cc2)c1Cl [Compound 125] | 0 to 29% |

Same assay, conditions: post-emergence, 336 h, SETFA: giant foxtail (Setaria faberi), application rate 70 g ai/ha, read-out: Visual Growth Reduction (%) 14 Days After Application, SETFA

| Structure (SMILES) | pest or weed control at 70 g/ha |
| --- | --- |
| Nc1c(Cl)c(C(=O)O)nc(-c2ccc(Br)cc2)c1Cl [Compound 125] | 85 to 94% |

Same assay, conditions: post-emergence, 336 h, SETFA: giant foxtail (Setaria faberi), application rate 140 g ai/ha, read-out: Visual Growth Reduction (%) 14 Days After Application, SETFA

| Structure (SMILES) | pest or weed control at 140 g/ha |
| --- | --- |
| Nc1c(Cl)c(C(=O)O)nc(-c2ccc(Br)cc2)c1Cl [Compound 125] | 95 to 100% |

Same assay, conditions: post-emergence, 336 h, SORVU: grain sorghum (Sorghum vulgare), application rate 70 g ai/ha, read-out: Visual Growth Reduction (%) 14 Days After Application, SORVU

| Structure (SMILES) | pest or weed control at 70 g/ha |
| --- | --- |
| Nc1c(Cl)c(C(=O)O)nc(-c2ccc(Br)cc2)c1Cl [Compound 125] | 60 to 74% |

Same assay, conditions: post-emergence, 336 h, SORVU: grain sorghum (Sorghum vulgare), application rate 140 g ai/ha, read-out: Visual Growth Reduction (%) 14 Days After Application, SORVU

| Structure (SMILES) | pest or weed control at 140 g/ha |
| --- | --- |
| Nc1c(Cl)c(C(=O)O)nc(-c2ccc(Br)cc2)c1Cl [Compound 125] | 85 to 94% |

Same assay, conditions: post-emergence, 336 h, ZEAMX: maize, corn (Zea mays), application rate 70 g ai/ha, read-out: Visual Growth Reduction (%) 14 Days After Application, ZEAMX

| Structure (SMILES) | pest or weed control at 70 g/ha |
| --- | --- |
| Nc1c(Cl)c(C(=O)O)nc(-c2ccc(Br)cc2)c1Cl [Compound 125] | 60 to 74% |

Same assay, conditions: post-emergence, 336 h, ZEAMX: maize, corn (Zea mays), application rate 140 g ai/ha, read-out: Visual Growth Reduction (%) 14 Days After Application, ZEAMX

| Structure (SMILES) | pest or weed control at 140 g/ha |
| --- | --- |
| Nc1c(Cl)c(C(=O)O)nc(-c2ccc(Br)cc2)c1Cl [Compound 125] | 60 to 74% |

System: not given
Test: not given
Settings: not given

| melting point | Structure (SMILES) |
| --- | --- |
| 164.9 to 166.1 °C | Nc1c(Cl)c(C(=O)O)nc(-c2ccc(Br)cc2)c1Cl [Compound 125] |
